Measured values: ChEMBL document CHEMBL1123767, “High-affinity leukotriene receptor antagonists. Synthesis and pharmacological characterization of 2-hydroxy-3-[(2-carboxyethyl)thio]-3-[2-(8-phenyloctyl)phenyl] propanoic acid” (J Med Chem, 1987)

Columns and labels:
[1] = target: T1, Cysteinyl leukotriene receptor 1 (Cavia porcellus, UniProt Q2NNR5); test: Binding affinity against Cysteinyl leukotriene D4 receptor in guinea pig lung membranes using [3H]LTD4 as the radioligand.; format: cell membranes, Membrane
T1 sequence (Q2NNR5 whole entry): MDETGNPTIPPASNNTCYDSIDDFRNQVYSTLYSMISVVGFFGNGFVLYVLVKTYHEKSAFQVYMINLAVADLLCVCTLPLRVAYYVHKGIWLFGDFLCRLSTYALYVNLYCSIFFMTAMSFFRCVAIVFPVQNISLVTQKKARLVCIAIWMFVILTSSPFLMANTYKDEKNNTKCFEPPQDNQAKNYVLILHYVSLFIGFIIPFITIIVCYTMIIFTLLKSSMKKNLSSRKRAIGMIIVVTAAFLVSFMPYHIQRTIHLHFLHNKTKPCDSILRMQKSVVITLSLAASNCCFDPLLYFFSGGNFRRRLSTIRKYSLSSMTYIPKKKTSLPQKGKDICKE

Cavia porcellus [2] = organism: Cavia porcellus; test: In vitro ability to antagonize LTD4-induced contractions of guinea pig smooth muscle (trachea) at 10 uM concentration.; format: functional
[3] = target: T2, Cysteinyl leukotriene receptor 1 (Cavia porcellus) (UniProt Q2NNR5); test: (§1) In vitro ability to antagonize LTC4-induced contractions of guinea pig smooth muscle (trachea) at 10 uM concentration.; format: functional, tissue-based
T2 sequence (whole entry): T1 sequence (Q2NNR5 whole entry)

Cavia porcellus [4] = organism: Cavia porcellus; test: as §1; format: functional
Homo sapiens [5] = organism: Homo sapiens; test: In vitro ability to antagonize LTC4-induced contractions of human smooth muscle (bronchus) at 10 uM concentration.; format: functional
Homo sapiens [6] = organism: Homo sapiens; test: Ability to antagonize LTD4-induced contractions of human airway smooth muscle (bronchus) at 10 uM concentration; format: functional
Cavia porcellus [7] = organism: Cavia porcellus; test: In vitro ability to antagonize LTD4-induced contractions of guinea pig smooth muscle (trachea) at 3 uM concentration.; format: functional
Homo sapiens [8] = organism: Homo sapiens; test: In vitro ability to antagonize LTC4-induced contractions of human smooth muscle (bronchus) at 3 uM concentration.; format: functional
Homo sapiens [9] = organism: Homo sapiens; test: In vitro ability to antagonize LTD4-induced contractions of human airway smooth muscle (bronchus) at 3 uM concentration; format: functional
[10] = target: T3, Cysteinyl leukotriene receptor 1 (Homo sapiens, UniProt Q9Y271); test: Binding affinity against Cysteinyl leukotriene D4 receptor in human lung membranes using [3H]LTD4 as the radioligand.; format: cell membranes, Membrane
T3 sequence (Q9Y271 whole entry): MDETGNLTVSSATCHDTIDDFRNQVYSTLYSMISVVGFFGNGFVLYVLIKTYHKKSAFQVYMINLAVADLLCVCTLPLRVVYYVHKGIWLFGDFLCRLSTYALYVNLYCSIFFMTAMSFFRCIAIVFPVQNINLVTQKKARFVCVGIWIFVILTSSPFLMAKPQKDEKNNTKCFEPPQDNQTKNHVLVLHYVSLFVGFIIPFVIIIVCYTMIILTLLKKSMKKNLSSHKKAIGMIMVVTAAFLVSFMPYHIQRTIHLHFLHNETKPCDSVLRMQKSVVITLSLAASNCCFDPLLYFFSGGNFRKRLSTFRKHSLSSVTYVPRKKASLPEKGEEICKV

[11] = target: T2, Cysteinyl leukotriene receptor 1 (Cavia porcellus); settings: Trachea, 3 uM
Description: In vitro ability to antagonize LTC4-induced contractions of guinea pig smooth muscle (trachea) at 3 uM concentration.

Structure (SMILES): O=C(O)CCS[C@@H](c1ccccc1CCCCCCCCc1ccccc1)[C@H](O)C(=O)O
- Ki [1]: 180 nM
- pKb (Cavia porcellus [2]): 6.1

Structure (SMILES): O=C(O)CCSC(CC(=O)O)c1ccccc1CCCCCCCCc1ccccc1 (stereo not given)
- Ki [1]: 60 nM
- pKb (Cavia porcellus [2]): 7
- pKb [3]: 5.1

Structure (SMILES): CCCc1c(OCC(O)COc2ccc3c(=O)cc(C(=O)O)oc3c2CCC)ccc(C(C)=O)c1O (stereo not given) [FPL-55712]
- pKb (Cavia porcellus [2]): 6.7
- pKb (Cavia porcellus [4]): 4.9
- pKb (Homo sapiens [5]): 6.4
- pKb (Homo sapiens [6]): 5.8

Structure (SMILES): O=C(O)CCS[C@H](c1ccccc1CCCCCCCCc1ccccc1)[C@@H](O)C(=O)O [POBILUKAST]
- Ki [1]: 5 nM
- pKb (Cavia porcellus [7]): 8.6
- pKb (Homo sapiens [8]): 8.3
- pKb (Homo sapiens [9]): 8.2
- Ki [10]: 10 nM
- pKb [11]: < 5.4
